The values that follow are results of earlier work, collected in patent publication US11759447B1, “Compound and method for treating diseases and disorders” (RCR BIOPHARMA, priority 2019, dated 2023).

The structures appear in SMILES notation.

The test system of series [1] is dogs.
The conditions of series [2]: oral forms such as CBD treats.
Series [3] has as its system dogs. The following applies: high levels of hemp-derived CBD (<0.3% THC).
Series [4] concerns dogs. The following applies: IV.

With `COc1cccc(C2(O)CCCCC2CN(C)C)c1` (stereo not shown) [tramadol, Tramadol], the “peak vertical force or vertical impulse versus placebo” value in the series with dogs [1] was “no improvement”.
Take `C=C(C)[C@@H]1CCC(C)=C[C@H]1c1c(O)cc(CCCCC)cc1O` [CBD, Cannabidiol]: the “fraction of orally administered CBD ultimately absorbed, on average” value in series [2] is 5-10%. The dogs with ataxia with dogs [3] is listed as 2 of the 10.
As to `CCCCCc1cc(O)c2c(c1)OC(C)(C)[C@@H]1CCC(C)=C[C@@H]21` [THC, Δ-9-tetrahydrocannabinol], in the series with dogs [4], the “dose causing Static Ataxia” value is above 0.5 mg/kg.
